Results on one compound are retold here after paper PMC7016952, “Characterization of the Menin-MLL Interaction as Therapeutic Cancer Target” (Cancers, 2020).

One assay concerns the target T1, menin-MLL interaction (Homo sapiens, UniProt O00255).
T1 construct: recombinant full length, His-tagged menin
T1 sequence (O00255 1-610): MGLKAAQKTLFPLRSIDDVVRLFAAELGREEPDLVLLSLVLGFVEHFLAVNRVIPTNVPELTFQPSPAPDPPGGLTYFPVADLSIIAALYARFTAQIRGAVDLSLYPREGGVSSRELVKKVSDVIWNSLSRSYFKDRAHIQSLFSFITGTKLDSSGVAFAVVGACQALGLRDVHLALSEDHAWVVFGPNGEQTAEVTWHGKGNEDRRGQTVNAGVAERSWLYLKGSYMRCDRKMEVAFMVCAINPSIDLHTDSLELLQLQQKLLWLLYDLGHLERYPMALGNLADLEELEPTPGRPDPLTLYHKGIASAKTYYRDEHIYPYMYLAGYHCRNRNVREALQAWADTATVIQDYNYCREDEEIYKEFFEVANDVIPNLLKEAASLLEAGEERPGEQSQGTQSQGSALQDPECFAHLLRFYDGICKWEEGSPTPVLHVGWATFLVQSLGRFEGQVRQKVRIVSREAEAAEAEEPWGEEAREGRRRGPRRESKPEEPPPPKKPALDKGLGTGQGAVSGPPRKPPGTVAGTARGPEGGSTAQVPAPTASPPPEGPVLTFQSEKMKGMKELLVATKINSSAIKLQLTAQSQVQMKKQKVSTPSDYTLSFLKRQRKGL
On the set-up: method as in PMID 31253180. Conditions: read-out: Potency IC50 Menin-MLL binding; TR-FRET; previously reported; cited from earlier work. A general note: Time-resolved FRET reads energy transfer from a long-lived donor to a nearby acceptor.

The target in another assay is T2, menin (Homo sapiens, UniProt O00255).
T2 construct: purified menin (1–615 with GST-tag cleaved as described above); GST (TEV cleavable) (N, cleaved yes); made in house; host or cells: E. coli BL21 (DE3)
T2 sequence (O00255 1-615 isoform O00255-1): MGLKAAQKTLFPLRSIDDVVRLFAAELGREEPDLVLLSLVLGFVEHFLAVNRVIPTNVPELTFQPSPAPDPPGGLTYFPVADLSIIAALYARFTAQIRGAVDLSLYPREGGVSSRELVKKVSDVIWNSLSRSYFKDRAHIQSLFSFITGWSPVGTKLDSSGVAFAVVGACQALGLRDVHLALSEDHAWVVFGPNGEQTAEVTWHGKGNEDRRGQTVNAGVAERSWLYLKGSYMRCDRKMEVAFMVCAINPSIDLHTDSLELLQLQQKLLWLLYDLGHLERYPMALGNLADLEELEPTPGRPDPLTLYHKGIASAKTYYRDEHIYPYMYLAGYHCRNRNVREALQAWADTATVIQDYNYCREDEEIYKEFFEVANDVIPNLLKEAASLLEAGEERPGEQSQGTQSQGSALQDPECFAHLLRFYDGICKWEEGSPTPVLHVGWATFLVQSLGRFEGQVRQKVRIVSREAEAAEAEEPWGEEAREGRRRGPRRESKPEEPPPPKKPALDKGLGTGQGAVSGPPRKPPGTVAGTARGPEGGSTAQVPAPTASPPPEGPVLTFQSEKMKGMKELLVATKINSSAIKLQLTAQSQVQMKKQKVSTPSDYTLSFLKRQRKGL
Nature of the assay: Isothermal Titration Calorimetry (ITC) on purified menin. Type of assay: binding. On the procedure:
Cloning of expression vectors for recombinant menin was performed as follows. […] Proteins were expressed in E. coli BL21 (DE3) following 0.1 mM IPTG induction at 17 °C overnight. For purification, cell pellets were resuspended in buffer A (50 mM Tris pH 7.5, 300 mM NaCl, 2 mM DTT). Cells were lysed using a high pressure Microfluidics apparatus and the cell debris pelleted by centrifugation. The supernatant was applied to a GST column (GE Healthcare, Chicago, IL, USA), washed with two column volumes of washing buffer A and eluted with Buffer B (Buffer A plus 15 mM reduced glutathione). If necessary, the purification tag was cleaved off with the addition of His-TEV protease (1:20 mass ratio) during overnight incubation in buffer A. His-TEV was removed by IMAC column rebinding and final protein purification of either GST-cleaved or uncleaved menin-1 was performed by size exclusion chromatography using a HiLoad 16/60 Superdex 200 (GE Healthcare) column in buffer C (Buffer A but 50 mM NACl).
The compound was dissolved in 100% DMSO to a concentration of 10 mM and subsequently diluted to a final concentration of 5 µM in ITC Buffer. Isothermal Titration Calorimetry (ITC) was performed at 25 °C in a Microcal PEAQ-ITC (Malvern Panalytical). […] Reference Power was set to 6 μcal/s. Data were collected on high feedback mode. Analysis was performed with a single binding site model in the Microcal PEAQ-ITC Analysis Software (Malvern Panalytical).
Background: Isothermal titration calorimetry measures the heat released or taken up as one component is titrated into another.

Each structure is given as a SMILES string.

By IC50 is commonly meant the concentration that inhibits the measured activity by half. By Kd is commonly meant the free concentration of one partner at which half of the binding sites on the other are occupied at equilibrium, for simple one-to-one binding. Consider `Cc1c(CN2CCC3(CC2)CN(c2ncnc4sc(CC(F)(F)F)cc24)C3)ccc2c1cc(C#N)n2CC(N)=O` [BAY-155], for which the IC50 on menin-MLL interaction was 8 nM. The Kd on menin was 75 nM. Also, at menin (ITC), the “stoichiometry factor N” value is recorded as 1.06.
